Laboratory results as given in ChEMBL document CHEMBL1156847, “Structure-based design of a thiazolidinedione which targets the mitochondrial protein mitoNEET” (Bioorg Med Chem Lett, 2010).

How the values were obtained:
[1] = molecular target: T1, CDGSH iron-sulfur domain-containing protein 1 (Rattus norvegicus, UniProt B0K020); test: Displacement of [3H]rosiglitazone from rat liver mitochondrial mitoNEET by scintillation counting
T1 sequence (B0K020 whole entry): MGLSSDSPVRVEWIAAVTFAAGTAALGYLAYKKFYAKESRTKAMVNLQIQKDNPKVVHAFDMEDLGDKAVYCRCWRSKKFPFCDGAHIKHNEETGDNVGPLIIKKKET

[2] = Inhibition of respiration in Sprague-Dawley rat mitochondria assessed as reduction in respiratory control rate; assay type: functional
Rattus norvegicus = species: Rattus norvegicus; test: Reduction in state 3 respiration in Sprague-Dawley rat mitochondria; assay type: functional; parameters: scale not given: the % may be the effect or the level left
SH-SY5Y [3] = test: Neuroprotective activity against rotenone-induced cell death in human SH-SY5Y assessed as reduction in LDH release pretreated 1 hrs before rotenone challenge measured after 24 hrs; assay type: functional, cell-based
SH-SY5Y [4] = test: Neuroprotective activity against rotenone-induced cell death in human SH-SY5Y assessed as reduction in LDH release pretreated 1 hrs before rotenone challenge measured after 24 hrs relative to control; assay type: functional; parameters: scale not given: the % may be the effect or the level left

Compound	IC50 [1]	IC50 [2]	Activity (Rattus norvegicus)	Activity (SH-SY5Y [3])	Activity (SH-SY5Y [4])
CN(CCOc1ccc(CC2SC(=O)NC2=O)cc1)c1ccccn1 (configuration not stated) [ROSIGLITAZONE]	1100 nM				
CC(C)(C)c1cc(CC2SC(=O)N=C2O)cc(C(C)(C)C)c1O (configuration not stated)	900 nM	2400 nM	45%	Dose-dependent effect	40%
CCc1ccc(CCOc2ccc(CC3SC(=O)NC3=O)cc2)nc1 (configuration not stated) [PIOGLITAZONE]	1000 nM				
